Source: patent US6525001B1, “Substituted pyrimidine and pyridine herbicides” (Mid-American Commercialization Corporation, priority 1997, dated 2003)

How the values were obtained:
Type in all cases: in vivo
Parameters in all cases: key: 0 is no effect; 10 is complete control
[1] = test system: smallflower flatsedge (Cyperus difformis); assay: Test B flood test
Description: (§1) At the same time, these crop and weed species were also treated with postemergence applications of test chemicals formulated in the same manner. Plants ranged in height from 2 to 18 cm (1- to 4-leaf stage) for postemergence treatments. Plant species in the flood test consisted of rice (Oryza sativa), smallflower flatsedge (Cyperus difformis), duck salad (Heteranthera limosa) and bamyardgrass (Echinochloa crus-galli) grown to the 2-leaf stage for testing. Treated plants and controls were maintained in a greenhouse for twelve to sixteen days, after which all species were compared to controls and visually evaluated. Plant response ratings, summarized in Table B, are based on a scale of 0 to 10 where 0 is no effect and 10 is complete control. A dash (−) response means no test result.

rice (Oryza sativa) = assay: Test B flood test
Description: as §1

[2] = test system: bamyardgrass (Echinochloa crus-galli); assay: Test B flood test
Description: as §1

[3] = test system: duck salad (Heteranthera limosa); assay: Test B flood test
Description: as §1

rape (Brassica napus) = assay: Test B pre-/postemergence; details: for Plant response rating, Rape: Preemergence; for Rape plant response rating: Postemergence
Text: (§2) Seeds of bedstraw (Galium aparine), blackgrass (Alopecurus myosuroides), broadleaf signalgrass (Brachiaria decumbens), cocklebur (Xanthium strumarium), corn (Zea mays), crabgrass (Digitaria sanguinalis), giant foxtail (Setaria faberii), lambsquarters (Chenopodium album), momingglory (Ipomoea hederacea), pigweed (Amaranthus retroflexus), rape (Brassica napus), soybean (Glycine max), sugar beet (Beta vulgaris), velvetleaf (Abutilon theophrasti), wheat (Triticum aestivum), wild oat (Avena fatua) and purple nutsedge (Cyperus rotundus) tubers were planted and treated preemergence with test chemicals formulated in a non-phytotoxic solvent mixture which included a surfactant.
as §1

corn (Zea mays) = assay: Test B pre-/postemergence; details: for Plant response rating, Corn: Preemergence; for Corn plant response rating: Postemergence
Text: as §2, §1

[4] = test system: velvetleaf (Abutilon theophrasti); assay: Test B pre-/postemergence; details: for Velvetleaf plant response rating: Postemergence
Text: as §2, §1

[5] = test system: crabgrass (Digitaria sanguinalis); assay: Test B pre-/postemergence; details: for Plant response rating, Crabgrass: Preemergence; for Crabgrass plant response rating: Postemergence
Text: as §2, §1

[6] = test system: wheat (Triticum aestivum); assay: Test B pre-/postemergence; details: for Plant response rating, Wheat: Preemergence; for Wheat plant response rating: Postemergence
Text: as §2, §1

[7] = test system: giant foxtail (Setaria faberii); assay: Test B pre-/postemergence; details: for Plant response rating, Giant foxtail: Preemergence; for Giant foxtail plant response rating: Postemergence
Text: as §2, §1

[8] = test system: cocklebur (Xanthium strumarium); assay: Test B pre-/postemergence; details: for Cocklebur plant response rating: Postemergence
Text: as §2, §1

[9] = test system: broadleaf signalgrass (Brachiaria decumbens); assay: Test B pre-/postemergence
Text: as §2, §1

[10] = test system: bedstraw (Galium aparine); assay: Test B pre-/postemergence; details: Rate 125 g/ha, Preemergence
Text: as §2, §1

soybean (Glycine max) = assay: Test B pre-/postemergence; details: for Plant response rating, Soybean: Preemergence; for Soybean plant response rating: Postemergence
Text: as §2, §1

[11] = test system: momingglory (Ipomoea hederacea); assay: Test B pre-/postemergence; details: for Plant response rating, Morningglory: Preemergence; for Morningglory plant response rating: Postemergence
Text: as §2, §1

wild oat (Avena fatua) = assay: Test B pre-/postemergence; details: for Plant response rating, Wild oats: Preemergence; for Wild oats plant response rating: Postemergence
Text: as §2, §1

[12] = test system: blackgrass (Alopecurus myosuroides); assay: Test B pre-/postemergence; details: for Plant response rating, Blackgrass: Preemergence; for Blackgrass plant response rating: Postemergence
Text: as §2, §1

[13] = test system: pigweed (Amaranthus retroflexus); assay: Test B pre-/postemergence; details: for Plant response rating, Redroot pigweed: Preemergence; for Redroot pigweed plant response rating: Postemergence
Text: as §2, §1

[14] = test system: sugar beet (Beta vulgaris); assay: Test B pre-/postemergence; details: for Plant response rating, Sugarbeets: Preemergence; for Sugarbeets plant response rating: Postemergence
Text: as §2, §1

[15] = Rate 62 g/ha, Postemergence (flood test)
[16] = Rate 125 g/ha, Postemergence section (flood test species)
[17] = Rate 250 g/ha, Postemergence (flood test species)

CCc1cnc(-n2cnc(C(F)(F)F)c2)nc1C(=O)c1cccc(OC(F)(F)F)c1 [Compound 71]
5: Rape plant response rating (rape (Brassica napus); Rate 62 g/ha)
7: Rape plant response rating (rape (Brassica napus); Rate 125 g/ha) | Plant response rating, Rape (rape (Brassica napus); Rate 125 g/ha)
4: Plant response rating, S. Flatsedge [1, 17] | Wheat plant response rating ([6]; Rate 62 g/ha) | Wheat plant response rating ([6]; Rate 125 g/ha) | Cocklebur plant response rating ([8]; Rate 62 g/ha) | Cocklebur plant response rating ([8]; Rate 125 g/ha) | Soybean plant response rating (soybean (Glycine max); Rate 125 g/ha) | Plant response rating, Morningglory ([11]; Rate 125 g/ha)
2: S. Flatsedge plant response rating [1, 16] | Rice plant response rating (rice (Oryza sativa); [15]) | Rice plant response rating (rice (Oryza sativa); [16]) | Plant response rating, Rice (rice (Oryza sativa); [17]) | Barnyardgrass plant response rating [2, 15] | Barnyardgrass plant response rating [2, 16] | Plant response rating, Ducksalad [3, 17] | Plant response rating, Rape (rape (Brassica napus); Rate 62 g/ha, scale of 0 to 10) | Corn plant response rating (corn (Zea mays); Rate 62 g/ha) | Plant response rating, Crabgrass ([5]; Rate 62 g/ha, scale of 0 to 10) | Crabgrass plant response rating ([5]; Rate 62 g/ha) | Plant response rating, Crabgrass ([5]; Rate 125 g/ha) | Giant foxtail plant response rating ([7]; Rate 62 g/ha) | Giant foxtail plant response rating ([7]; Rate 125 g/ha) | Plant response rating, Giant foxtail ([7]; Rate 125 g/ha) | B. signalgrass plant response rating ([9]; Rate 62 g/ha, Postemergence) | B. signalgrass plant response rating ([9]; Rate 125 g/ha, Postemergence) | Plant response rating, B. signalgrass ([9]; Rate 125 g/ha, Preemergence) | Plant response rating, Morningglory ([11]; Rate 62 g/ha, scale of 0 to 10) | Wild oats plant response rating (wild oat (Avena fatua); Rate 62 g/ha) | Wild oats plant response rating (wild oat (Avena fatua); Rate 125 g/ha) | Blackgrass plant response rating ([12]; Rate 62 g/ha) | Plant response rating, Blackgrass ([12]; Rate 125 g/ha) | Plant response rating, Sugarbeets ([14]; Rate 62 g/ha, scale of 0 to 10)
6: Velvetleaf plant response rating ([4]; Rate 125 g/ha) | Plant response rating, Velvetleaf ([4]; Rate 125 g/ha, Preemergence) | Morningglory plant response rating ([11]; Rate 125 g/ha) | Plant response rating, Redroot pigweed ([13]; Rate 62 g/ha, scale of 0 to 10)
3: Plant response rating, Barnyardgrass [2, 17] | Corn plant response rating (corn (Zea mays); Rate 125 g/ha) | Velvetleaf plant response rating ([4]; Rate 62 g/ha) | Crabgrass plant response rating ([5]; Rate 125 g/ha) | Plant response rating, Wheat ([6]; Rate 125 g/ha) | Soybean plant response rating (soybean (Glycine max); Rate 62 g/ha) | Plant response rating, Wild oats (wild oat (Avena fatua); Rate 125 g/ha) | Blackgrass plant response rating ([12]; Rate 125 g/ha) | Plant response rating, Sugarbeets ([14]; Rate 125 g/ha)
1: Plant response rating, Corn (corn (Zea mays); Rate 62 g/ha, scale of 0 to 10) | Plant response rating, Corn (corn (Zea mays); Rate 125 g/ha) | Plant response rating, Wheat ([6]; Rate 62 g/ha, scale of 0 to 10) | Plant response rating, Giant foxtail ([7]; Rate 62 g/ha, scale of 0 to 10) | Plant response rating, Bedstraw [10] | Morningglory plant response rating ([11]; Rate 62 g/ha) | Plant response rating, Blackgrass ([12]; Rate 62 g/ha, scale of 0 to 10)
0: S. Flatsedge plant response rating [1, 15] | Ducksalad plant response rating [3, 15] | Ducksalad plant response rating [3, 16] | Plant response rating, Cocklebur ([8]; Rate 125 g/ha, Preemergence) | B. signalgrass plant response rating ([9]; Rate 62 g/ha, Preemergence) | Plant response rating, Soybean (soybean (Glycine max); Rate 62 g/ha, scale of 0 to 10) | Plant response rating, Soybean (soybean (Glycine max); Rate 125 g/ha) | Plant response rating, Wild oats (wild oat (Avena fatua); Rate 62 g/ha, scale of 0 to 10)
8: Redroot pigweed plant response rating ([13]; Rate 62 g/ha) | Redroot pigweed plant response rating ([13]; Rate 125 g/ha) | Plant response rating, Redroot pigweed ([13]; Rate 125 g/ha) | Sugarbeets plant response rating ([14]; Rate 62 g/ha) | Sugarbeets plant response rating ([14]; Rate 125 g/ha)
